Measurements: US7863415B2 (The Regents of the University of California, priority 2004, dated 2011)
“Also recorded” adds a separate entry of the source. Read-outs that look alike come from different tables or passages of the source. Starred links: 1 amine or outer side, 2 acyl side, 3 side chain; linkers in the order of their positions; H or OH if unused. Non-standard residues stand in square brackets, D forms with d. Residues, ends and D or L forms follow the SMILES beside them. No end group written: not given here. X1 = N=C(N)NC(=O)c1nc(Cl)c(N(CC(=O)[*:2])[*:1])nc1N

Experiments:
[1] = tested on: [Ca^2+]i in U87 glioma cells; assay: [Ca2+]i in U87 glioma cells loaded with fura-2AM, quantitative fluorescent microscopy; type: cell-based, human; settings: U87 glioma cells
Description: Therefore, the levels of [Ca^2+]i in U87 glioma cells loaded with fura-2AM were measured using quantitative fluorescent microscopy. […] The ATP-dependent calcium regulatory mechanisms within U87 glioma cells containing fura-2 were then examined. […] ATP synthase operates in reverse when milimolar concentrations of calcium are stored by the mitochondrion (Nicholls, Bioenergetics, 3, Academic Press, London, 3rd edition (2002)).
Quantitative fluorescent microscopy of [Ca^2+]i levels. [Ca^2+]i levels can be measured in cells loaded with either fura-2A or fura-2FFAM under the conditions described above.

[2] = tested on: glioma cells and primary astrocytes; assay: Cell entry by confocal microscopy; type: in vitro ADME
[3] = tested on: U87 glioma cells; assay: Glioma cell death, manual cell counts with trypan blue exclusion; settings: for Glioma Effect: cytotoxic concentration: glioma cells
[4] = tested on: enkephalinase (endopeptidase 24.11); assay: Enzyme digestion with enkephalinase, LC-MS/ESI; type: in vitro ADME, porcine; settings: for Conclusion (Peptidase: Enkephalinase): 10 μM conjugate, 10 units enzyme, 25° C., pH 7.4, 24 h; for Cleavage by enkephalinase (release of compound 3a): 24 h incubation, LC-MS
Description: (§1) Compound 3b is a C5am-Gly-peptide conjugate containing two D-amino acids, and compound 3c is a C5am-Gly-peptide conjugate coupled to a peptide to generate an analog of opioid peptides that cross the blood brain barrier (BBB). The resultant conjugates (compounds 3a-c) were tested for selective cleavage by the brain peptidase enkephalinase (neutral endopeptidase 24.11; Calbiochem) via incubation for 24 h in the presence or absence of the enzyme, and aliquots from the reaction solutions were then analyzed by LC-MS to identify the C5am-Gly conjugate (compound 3a), starting material, and enzymatic cleavage products (see, Scheme 3). As negative control experiments, the conjugates were analyzed following treatment with (1) bovine pancreatic trypsin (Calbiochem) or (2) the buffer solutions without enzymes.
(§2) Enzyme digestion. Endopeptidase 24.11 (neutral, porcine kidney) and trypsin (bovine pancreas) were purchased from CalBiochem (San Diego, Calif.) and used as received. Enzymatic cleavage experiments using endopeptidase 24.11 were conducted at 25° C. in a pH 7.4 Tris buffer (150 mM NaCl, 50 mM Tris, 0.1% Triton X-100) as recommended by the manufacturer (see also, Barnes et al., J. Neurochem., 64:1826-1832 (1995), Gafford et al., Biochemistry, 22:3265-3271 (1983)). Similarly, trypsin cleavage experiments were conducted at 25° C. in pH 7.4 Dulbecco's phosphate buffered saline (Gibco; Grand Island, N.Y.). The digestion reactions included 10 μM of the amiloride-peptide conjugate and 10 units of enzyme in 250 μL of buffer. Direct aliquots were analyzed by LC-MS/ESI following a 24 hour incubation period.
(§3) Enzyme Digestion Study. Compounds 3a-d were each incubated at 25° C. with 10 units of enkephalinase (endopeptidase 24.11) to determine their susceptibility towards enzymatic cleavage. Reaction aliquots were taken following a 24 hour incubation period and analyzed directly by LC-MS/ESI (Thermo Finnigan LCQ) for the presence of the starting material and the targeted cleavage product, compound 3a (C5am-Gly). […] Since there are no basic amino acid residues in compounds 3a-d, trypsin was employed as a negative control to ensure that any observed cleavage products could be ascribed only to endopeptidase-specific interactions (Jackson, Protein Science, 8:603-613 (1999)).

[5] = molecular target: T1, trypsin (Bos taurus, UniProt P00760); assay: Enzyme digestion with trypsin (negative control), LC-MS/ESI; type: in vitro ADME, bovine; settings: for Conclusion (Peptidase: Trypsin): 10 μM conjugate, 10 units enzyme, 25° C., pH 7.4, 24 h
T1 construct: purchased CalBiochem (San Diego, Calif.); host or cells: bovine pancreas
T1 sequence (P00760 24-246): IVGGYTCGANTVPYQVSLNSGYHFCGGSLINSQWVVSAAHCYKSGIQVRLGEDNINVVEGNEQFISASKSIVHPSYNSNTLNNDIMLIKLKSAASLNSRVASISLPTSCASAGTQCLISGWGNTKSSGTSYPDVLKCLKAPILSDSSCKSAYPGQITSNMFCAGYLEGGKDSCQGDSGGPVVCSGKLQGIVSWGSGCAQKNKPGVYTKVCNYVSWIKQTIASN
Description: as §1, §2, §3

[6] = molecular target: NHE1 (Homo sapiens, UniProt P19634); assay: NHE1 inhibition: sodium-dependent pHi recovery in BCECF-loaded U87 glial cells after ammonium chloride pre-pulse; type: cell-based; set-up: Sodium-dependent proton extrusion in U87 glial cells and in primary astrocytes is mediated by the type 1 sodium proton exchanger (NHE1); endogenous in cells; host or cells: U87 human glioma cells
Description: Intracellular pH Measurements. U87 glial cells were grown on glass coverslips and incubated for 30 minutes at 37° C. with the pH-sensitive dye, 2′,7′-bis(2-carboxyethyl)-5(6)-carboxyfluorescein-AM (BCECF-AM; Molecular Probes, OR). Cells were rinsed with HEPES Ringer buffer twice and maintained at 37° C. for an additional 15 minutes to permit intracellular hydrolysis of the AM ester; trapping BCECF within the cells. Cells on coverslips were placed in a Hitachi F2000 fluorescent spectrophotometer and excited at 440 and 507 nm with fluorescent emissions recorded at 535 nm (Hegde et al., J. Pharmacol. Exp. Ther., 310:67-74 (2004)).
NHE inhibition by compounds 3a and 3c was evaluated using intracellular pH (pHi) measurements in the U87 human glial cell line (Hegde et al., supra). Cells loaded with BCECF were then acidified using the ammonium chloride pre-pulse method (Roos et al., Physiol Rev, 61:296-434 (1981)). The subsequent sodium-dependent recovery of pHi by these cells in the absence of bicarbonate was monitored using a spectrofluorometer. Sodium-dependent proton extrusion in U87 glial cells and in primary astrocytes is mediated by the type 1 sodium proton exchanger (NHE1) (McLean et al., supra; Hegde et al., supra) and was monitored in the presence or absence of compound 3a or 3c.
IC50 drug determinations for NHE1. This method utilizes spectrofluorometric measurements of [H^+]i as described above. The ammonium chloride prepulse method can be used to acidify cells in the presence of HR that is sodium-substituted with NMDG. Perfusion of the acidified cells with HR that contains sodium causes activation of NHE1 that is inhibited in a concentration-dependent fashion as described in McLean et al., supra.

[7] = tested on: U87 cells; assay: Intracellular translocation into U87 cells by fluorescence microscopy; settings: 50 μM; 90 and 180 min; 380 nm excitation, 510 nm emission
Text: Fluorescence Microscopy. […] Excitation light was provided by a xenon arc lamp coupled to the Polychrome IV scanning monochromator (Till Photonics; Grafelfing, Germany) that alternately excites with different wavelengths. Excitation light was delivered by fiber optics to cells through the epifluorescence port of a Nikon E600 microscope coupled to a Nikon Fluor 60× water immersion lens. The detector was an Orca II-ER CCD digital camera (Hamamatsu USA; Bridgewater, N.J.), which is controlled by C-Imaging Simple PCI software (Compix; Cranberry Township, Pa.).
Intracellular emission intensities were collected in regions of interest (ROI) from an average of 4-8 cells/field using Simple PCI imaging software. […] Images were captured as TIFF files (C-imaging Simple PCI software), and light and fluorescent images of the same field were imported in Photoshop 6.0 and vector graphics added using Illustrator 9.0.1 (Adobe; San Jose, Calif.).

[8] = tested on: U87 glioma cells; assay: Glioma cell proliferation, manual cell counts with trypan blue; type: cell-based, human; settings: glioma cells
Description: C(5)-amiloride glycine conjugate (C5am-Gly) inhibits NHE1 in U87 glioma cells and is antiproliferative. […] The inhibitory activity of C5am-Gly against NCX was tested and a systematic log dose screen of C5am-Gly against a panel of glioma cells and primary astrocytes was performed.
Manual cell counts with dye exclusion assays. Identical concentrations of glioma cells can be plated on 60 mm dishes and grown until 50% confluent. Following drug treatments, media containing floating cells can be collected in suspension. Adherent cells can be rinsed in calcium- and magnesium-free phosphate-buffered saline (PBS-CMF) and removed by incubation with 0.25% v/v trypsin for 5 minutes (37° C.). Cell suspensions can be combined with the floating fraction and centrifuged at 350×g for 5 minutes. The resulting pellet (one per dish) can be resuspended in equal volumes of PBS-CMF with 0.4% trypan blue and/or 500 nM Sytox Green. 10 μL aliquots of the suspension can be plated on a hemocytometer, and cells can be counted 5 minutes after staining. Simultaneous staining of cells with trypan (TB) and Sytox Green (SG) can be visualized by switching between visible light and fluorescein green.

[9] = tested on: NHE1 and NCX; settings: NHE1 and NCX inhibitors from the literature; cited from earlier work

Sequence of NHE1 (P19634 whole entry): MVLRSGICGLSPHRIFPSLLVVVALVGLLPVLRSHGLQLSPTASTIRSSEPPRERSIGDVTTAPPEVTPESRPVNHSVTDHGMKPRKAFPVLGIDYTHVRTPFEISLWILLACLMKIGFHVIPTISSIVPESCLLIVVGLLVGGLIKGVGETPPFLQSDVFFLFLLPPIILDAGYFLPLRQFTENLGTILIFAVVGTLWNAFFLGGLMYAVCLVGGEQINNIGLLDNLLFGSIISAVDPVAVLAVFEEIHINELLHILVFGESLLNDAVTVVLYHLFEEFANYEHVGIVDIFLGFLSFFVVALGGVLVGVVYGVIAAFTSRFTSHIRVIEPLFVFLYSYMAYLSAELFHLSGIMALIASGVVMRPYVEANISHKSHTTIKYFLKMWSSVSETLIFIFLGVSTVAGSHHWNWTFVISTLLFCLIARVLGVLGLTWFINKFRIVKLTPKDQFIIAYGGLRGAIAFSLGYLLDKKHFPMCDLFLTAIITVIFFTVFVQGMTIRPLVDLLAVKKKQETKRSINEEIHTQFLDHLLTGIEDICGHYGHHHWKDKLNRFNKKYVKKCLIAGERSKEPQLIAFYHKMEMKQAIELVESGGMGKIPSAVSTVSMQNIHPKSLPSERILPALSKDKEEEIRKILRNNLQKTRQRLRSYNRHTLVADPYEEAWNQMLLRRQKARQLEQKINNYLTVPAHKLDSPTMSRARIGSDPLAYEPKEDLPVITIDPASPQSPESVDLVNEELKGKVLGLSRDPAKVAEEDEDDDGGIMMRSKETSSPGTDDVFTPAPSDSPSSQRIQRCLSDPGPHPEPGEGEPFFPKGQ

For N=C(NC(=O)CN)NC(=O)c1nc(Cl)c(N)nc1N [C2am-Gly], which “Effect on [Ca2+]i” value [1] is on record?
Its value is “increased”.

What about the “Cell entry by confocal microscopy” value [2] of the same molecule?
The value was “not visualized entering”.

And the “Potency of killing glioma cells relative to amiloride” value [3]?
Its value is “greater than 50 times”.

What about the “Concentration that killed U87 glioma cells” value ([3]; U87 glioma cells, C2am-Gly within 24 h) of the same molecule?
The value was no more than 10 µM.

What about the “Glioma Effect: cytotoxic concentration” value [3] of the same molecule?
The value was “≦10 μM cytotoxic”.

Which “Conclusion (Peptidase: Enkephalinase)” value [4] does the source give for CC(C)C[C@H](NC(=O)[C@H](Cc1ccccc1)NC(=O)CNC(=O)CNC(=O)CNC(=O)CNc1nc(N)c(C(=O)NC(=N)N)nc1Cl)C(=O)O [Compound 3c, C5am-Gly-Gly-Gly-Gly-Phe-Leu-OH] (H-[X1]GGGFL-OH) here?
The value was “Enkephalinase-mediated”.

What about the “Cleavage by enkephalinase (release of compound 3a)” value [4] of the same molecule?
Its value is “selectively cleaved; also recorded: released compound 3a; also recorded: complete digestion”.

And the “Conclusion (Peptidase: Trypsin)” value [5]?
Its value is “Trypsin-mediated cleavage”.

And the “Cleavage by trypsin (release of compound 3a)” value ([5]; 24 h incubation, LC-MS)?
Its value is “did not generate C5am-Gly; also recorded: did not release compound 3a”.

What about the IC50 ([6]; U87 glial cells, sodium-dependent pHi recovery without bicarbonate, read-out: IC50 (μM) +/− SD (NHE inhibition)) of the same molecule?
The IC50 was greater than 100 µM.

For CCN(c1nc(N)c(C(=O)NC(=N)N)nc1Cl)C(C)C [EIPA, ethylisopropylamiloride], which “Intracellular accumulation in U87 cells” value [7] is on record?
The value was “intracellular accumulation; also recorded: rapid cell permeation”.

And the “Cell entry by confocal microscopy” value ([2]; C2am-Gly after 90-240 minutes)?
The value was “Rapid cell permeation”.

What about the “Reversal of NHE1 inhibition after removal of compound” value ([6]; U87 cells) of the same molecule?
The value was “slow and incomplete recovery”.

With CS(=O)(=O)O.CS(=O)(=O)c1cc(C(=O)N=C(N)N)ccc1N1CCCCC1 [HOE694] as the molecule, how does the “Effect on [Ca2+]i” value [1] read?
The value was “did not alter”.

With C[C@H](CCC(=O)O)C[C@H](C)C[C@H](C)C(=O)/C=C(\O)[C@H](C)C[C@H](C)C/C=C/[C@@H](C)[C@@H](O)[C@@H](C)[C@@H](O)C[C@@H]1CC[C@@](C)([C@H]2CC[C@@](C)([C@@H](C)O)O2)O1 [Ionomycin] as the molecule, how does the “Time to kill glioma cells” value [3] read?
Its value is 90 to 180 min.

What does the source list for N=C(N)SCCc1ccc(OCc2ccc([N+](=O)[O-])cc2)cc1 [KB-R7943]?
Glioma Effect: antiproliferative concentration [8]: not antiproliferative; Effect of pretreatment on [Ca2+]i after calcium release from mitochondrial stores ([1]; FCCP or oligomycin): did not cause a persistent increase; Rel. Activity [9]: NCX > NHE (blocks Ca^2+ influx); Glioma Effect: cytotoxic concentration [3]: not cytotoxic; Cytotoxicity to glioma cells ([3]; manual cell counts, trypan blue cell exclusion assay): non-toxic

For CCOc1ccc(Oc2ccc(OCc3cc(F)ccc3F)cc2)c(N)c1 [SEA0400], which “Rel. Activity” value [9] is on record?
The value was “NCX only no NHE activity (Ca^2+ influx mode > Ca^2+ efflux mode)”.

With CC[C@H]1/C=C/C=C/C[C@@H](C)[C@H](O)[C@@](C)(O)C(=O)[C@@H](C)[C@H](O)[C@@H](C)C(=O)[C@@H](C)[C@H](O)[C@@H](C)/C=C/C(=O)O[C@@H]2[C@H](C)[C@H](CC1)O[C@]1(CC[C@H](C)[C@H](C[C@@H](C)O)O1)[C@H]2C [oligomycin] as the molecule, how does the “[Ca2+]i transients” value ([1]; F0F1ATPase inhibition) read?
Its value is greater than 800 nM.

Which “Effect on [Ca2+]i” value [1] does the source give for C[C@@H]1O[C@@H](O[C@H]2C[C@@H](O)[C@]3(CO)[C@H]4[C@H](O)C[C@]5(C)[C@@H](C6=CC(=O)OC6)CC[C@]5(O)[C@@H]4CC[C@]3(O)C2)[C@H](O)[C@H](O)[C@H]1O [oubain] here?
The value was “did not demonstrably alter”.

For C/C=C(/C)C(=O)O[C@H]1C(C)=C2[C@H]([C@@H]1OC(=O)CCCCCCC)[C@@](C)(OC(C)=O)C[C@H](OC(=O)CCC)[C@@]1(O)[C@H]2OC(=O)[C@@]1(C)O [thapsigargin], which “Effect on [Ca2+]i” value [1] is on record?
Its value is “modest and transient increase”.

With “Compound 3d: C(5)-amiloride peptide conjugate prepared according to Scheme 1 with peptide sequence Gly-Gly-Gly-Phe-Leu (GGGFL; not fully specified (N-terminus); printed as Gly-Gly-Gly-Phe-Leu; also: C(5)-amiloride conjugate)” as the molecule, how does the “Conclusion (Peptidase: Enkephalinase)” value [4] read?
The value was “Enkephalinase resistant”.

What about the “Cleavage by enkephalinase (release of compound 3a)” value [4] of the same molecule?
Its value is “did not liberate compound 3a”.

And the “Conclusion (Peptidase: Trypsin)” value [5]?
Its value is “Trypsin resistant”.
